Where “and” joins values, the source holds several entries; their conditions need not be identical. Identical values can stand only once.
How the values were obtained:
[1] = molecular target: T1, recombinant soluble E-selectin (Homo sapiens, UniProt P16581); experiment: Recombinant soluble E-selectin/HL-60 cell adhesion assay; format: cell-based; settings: for Ratio (50 percent binding value for the standard Compound Z divided by the 50 percent binding value for the assayed sample) / IC50 value ratio of SLe^x to that of the compound: E-Selectin Cell Adhesion Assay, HL-60 cells; for Ratio (50 percent binding value for the standard Compound Z divided by the 50 percent binding value for the assayed sample): relative to Compound Z; for IC50 value ratio of SLe^x to that of the compound: relative to SLe^x (Table 1 value divided by 0.76); for inhibition of HL-60 cell adhesion to recombinant soluble E-selectin-coated plates, activity order: FIG. 1, range of inhibitor concentrations (mM)
T1 construct: The 3'-amplimer inserted the termination codon TGA after amino acid number 527 of the mature E-selectin; made in house
T1 sequence (P16581 22-548 limits assumed): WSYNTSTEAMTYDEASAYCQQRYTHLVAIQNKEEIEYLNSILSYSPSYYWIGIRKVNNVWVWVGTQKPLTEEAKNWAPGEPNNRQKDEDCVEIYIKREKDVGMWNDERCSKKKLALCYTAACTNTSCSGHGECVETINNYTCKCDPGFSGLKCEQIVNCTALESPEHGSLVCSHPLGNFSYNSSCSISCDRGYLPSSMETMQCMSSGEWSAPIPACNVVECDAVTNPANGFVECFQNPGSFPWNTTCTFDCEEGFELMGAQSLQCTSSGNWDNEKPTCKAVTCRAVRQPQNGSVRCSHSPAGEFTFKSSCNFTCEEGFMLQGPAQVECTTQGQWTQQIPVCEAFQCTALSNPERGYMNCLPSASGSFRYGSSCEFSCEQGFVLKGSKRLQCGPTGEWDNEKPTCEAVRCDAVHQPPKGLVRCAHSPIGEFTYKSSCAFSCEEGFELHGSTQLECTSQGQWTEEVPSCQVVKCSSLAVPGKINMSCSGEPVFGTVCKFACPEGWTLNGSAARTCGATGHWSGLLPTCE
Procedure: A modified recombinant soluble E-selectin/HL-60 cell adhesion assay was developed to provide a simple and highly reproducible method with which to compare the E-selectin blocking potential of a bivalent SLe^x saccharide compound. In this assay, recombinant soluble E-selectin (rELAM) is bound to the plastic surface of a 96 well ELISA plate. Dilutions of bivalent SLe^x saccharide compounds to be assayed are added to the wells followed by HL-60 cells which bear the ligand for E-selectin. The cells are allowed to adhere to the E-selectin coated assay plate and the nonadherent cells are removed by washing the plate with an automated plate washer. Bound cells are quantitated by measuring the cellular enzyme myeloperoxidase. The molar concentration of assayed bivalent SLe^x saccharide required to achieve 50 percent inhibition of control adhesion such as that inhibited by free SLe^x or an analog is used to compare the contemplated analogs for potency.
rELAM (recombinant modified ELAM-1) affinity purified, prepared as follows below. Each batch of rELAM was tested functionally to determine the appropriate concentration for use in the assay. A batch was titrated over a range of 1-5 μg/mL using inhibition by Compound Z (described hereinafter) as the standard. Small aliquots were then prepared, quick frozen in a dry-ice acetone bath and stored at -70° C. Each aliquot was opened only one time and then discarded or saved for use in other types of assays.
The soluble form of E-selectin (rELAM or sol-E-selectin) used here was engineered by deleting the transmembrane domain from the cDNA. This recombinant cDNA was cloned into a mammalian expression vector pCDNA1 [a derivative of pCDM8; Seed, Nature, 329:840 (1987)] that contains the chimeric cytomegalovirus/human immunodeficiency virus promoter. When introduced into the adenovirus-transformed human kidney cell line 293, expression of the CMV promoter is efficiently activated by the E1 gene products by a mechanism that has not been fully delineated. The pCDNA1-sol-E-selectin construction was introduced, via calcium phosphate-mediated gene transfer, into 293 cells and a stable cell line expressing high levels of sol-E-selectin was generated. The sol-E-selectinproduced by these cells was purified by immunoaffinity chromatograph on an anti-E-selectin monoclonal antibody Protein-A Sepharose column.
A 1.67 Kbp DNA fragment encoding a truncated structural gene for E-selectin was isolated by polymerase chain reaction (PCR) amplification of cDNA derived from messenger RNA that was isolated from IL-1-activated human endothelial cells. The 5'-amplimer inserted a unique ClaI restriction site 28 nucleotides upstream from the initiation codon of the E-selectin structural gene. The 3'-amplimer inserted the termination codon TGA after amino acid number 527 of the mature E-selectin, followed by a unique XhoI restriction site. The carboxy-terminus of sol-E-selectin is located at the carboxy terminus of the sixth consensus repeat element, thereby deleting the transmembrane domain. The 1.67 Kbp PCR fragment was codigested with ClaI and XhoI restriction endonucleases and sub-cloned into the ClaI and XhoI restriction sites of the cloning vector pBluescript II, providing vector pBS11-sol-E-selectin. Expressed soluble-E-selectin is 527 amino acid residues in length and contains 11 potential N-glycosylation sites.
1. Assays were carried out in 96-well Immunolan 2 plates (Dynatech Laboratories, Inc., Chantilly, Va. catalog #011-0103655). The rELAM (sol-E-selectin) was diluted to the appropriate concentration for the current batch. For these assays, rELAM was used at 2.5 or 3.0 μg/mL in DPBS; with well coating being carried out at room temperature. Using a multichannel pipette, 50μl per well were added to the following wells of one ELISA plate: E1-E6, F1-F6, and G1-G6. DPBS (50μl ) was added to wells H1, H2, and H3 for use as controls. This plate is referred to as the pretest plate. […]

[2] = test system: E-selectin; settings: monomeric; Nelson et al.; cited from earlier work
[3] = test system: P-selectin; settings: monomeric; Nelson et al.; cited from earlier work
[4] = test system: lung injury in rats; settings: Mulligan et al., cited from earlier work
[5] = infusion, cobra venom-infused rats

Question: With `CCO[C@@H]1O[C@H](CO[C@@H]2O[C@H](CO)[C@@H](O[C@@H]3O[C@H](CO)[C@H](O)[C@H](O[C@]4(C(=O)O)C[C@H](O)[C@@H](NC(C)=O)[C@H]([C@H](O)[C@H](O)CO)O4)[C@H]3O)[C@H](O[C@@H]3O[C@@H](C)[C@@H](O)[C@@H](O)[C@@H]3O)[C@H]2NC(C)=O)[C@H](O)[C@H](O[C@@H]2O[C@H](CO)[C@@H](O[C@@H]3O[C@H](CO)[C@H](O)[C@H](O[C@]4(C(=O)O)C[C@H](O)[C@@H](NC(C)=O)[C@H]([C@H](O)[C@H](O)CO)O4)[C@H]3O)[C@H](O[C@@H]3O[C@@H](C)[C@@H](O)[C@@H](O)[C@@H]3O)[C@H]2NC(C)=O)[C@H]1O` [Compound 1, Ethyl 3,6-bis-O-[(ammonium 5-acetamido-3,5-dideoxy-α-D-glycero-D-galacto-2-nonulo-pyranosylonate)-(2→3)-β-D-galactopyranosyl-(1→4)-(α-L-fucopyranosyl-(1→3))-2-acetamido-2-deoxy-β-D-glucopyranosyl]-β-D-galactopyranoside] as the compound, how does the “Ratio (50 percent binding value for the standard Compound Z divided by the 50 percent binding value for the assayed sample)” value [1] read?
Answer: The value was 3.8 and 2.67.

Question: What about the “IC50 value ratio of SLe^x to that of the compound” value [1] of the same compound?
Answer: Its value is 3.5-5.

Question: And the “inhibition of HL-60 cell adhesion to recombinant soluble E-selectin-coated plates, activity order” value [1]?
Answer: The value was “the most active”.

Question: With `COC(=O)CCCCCO[C@@H]1O[C@H](CO[C@@H]2O[C@H](CO)[C@@H](O[C@@H]3O[C@H](CO)[C@H](O)[C@H](O[C@]4(C(=O)O)C[C@H](O)[C@@H](NC(C)=O)[C@H]([C@H](O)[C@H](O)CO)O4)[C@H]3O)[C@H](O[C@@H]3O[C@@H](C)[C@@H](O)[C@@H](O)[C@@H]3O)[C@H]2NC(C)=O)[C@H](O)[C@H](O)[C@H]1O[C@@H]1O[C@H](CO)[C@@H](O[C@@H]2O[C@H](CO)[C@H](O)[C@H](O[C@]3(C(=O)O)C[C@H](O)[C@@H](NC(C)=O)[C@H]([C@H](O)[C@H](O)CO)O3)[C@H]2O)[C@H](O[C@@H]2O[C@@H](C)[C@@H](O)[C@@H](O)[C@@H]2O)[C@H]1NC(C)=O` [Compound 20, 5-Methoxycarbonylpentyl 2,6-bis-O-[(5-acetamido-3,5-dideoxy-α-D-glycero-D-galacto-2-nonulo-pyranosylonic acid)-yl-(2→3)-β-D-galactopyranosyl-(1→4)-(α-L-fucopyranosyl-(1→3))-2-acetamido-2-deoxy-β-D-glucopyranosyl]-β-D-galactopyranoside] as the compound, how does the “Ratio (50 percent binding value for the standard Compound Z divided by the 50 percent binding value for the assayed sample)” value [1] read?
Answer: The value was 2.67.

Question: What about the “IC50 value ratio of SLe^x to that of the compound” value [1] of the same compound?
Answer: The value was “about 3.5”.

Question: Which “Ratio (50 percent binding value for the standard Compound Z divided by the 50 percent binding value for the assayed sample)” value [1] does the source give for `COC(=O)CCCCCO[C@@H]1O[C@H](CO[C@@H]2O[C@H](CO)[C@@H](O[C@@H]3O[C@H](CO)[C@H](O)[C@H](O[C@]4(C(=O)O)C[C@H](O)[C@@H](NC(C)=O)[C@H]([C@H](O)[C@H](O)CO)O4)[C@H]3O)[C@H](O[C@@H]3O[C@@H](C)[C@@H](O)[C@@H](O)[C@@H]3O)[C@H]2NC(C)=O)[C@H](O[C@@H]2O[C@H](CO)[C@@H](O[C@@H]3O[C@H](CO)[C@H](O)[C@H](O[C@]4(C(=O)O)C[C@H](O)[C@@H](NC(C)=O)[C@H]([C@H](O)[C@H](O)CO)O4)[C@H]3O)[C@H](O[C@@H]3O[C@@H](C)[C@@H](O)[C@@H](O)[C@@H]3O)[C@H]2NC(C)=O)[C@H](O)[C@H]1O` [Compound 21, 5-Methoxycarbonylpentyl 4,6-bis-O-[(5-acetamido-3,5-dideoxy-α-D-glycero-D-galacto-2-nonulo-pyranosylonic acid)-yl-(2→3)-β-D-galactopyranosyl-(1→4)-(α-L-fucopyranosyl-(1→3))-2-acetamido-2-deoxy-β-D-glucopyranosyl]-β-D-galactopyranoside] here?
Answer: Its value is 1.67.

Question: What about the “inhibition of HL-60 cell adhesion to recombinant soluble E-selectin-coated plates, activity order” value [1] of the same compound?
Answer: The value was “more active than Compound 20”.

Question: With `CC(=O)N[C@H]1[C@H]([C@H](O)[C@H](O)CO)O[C@@](O[C@H]2[C@@H](O)[C@@H](CO)O[C@@H](O[C@H]3[C@H](O[C@@H]4O[C@@H](C)[C@@H](O)[C@@H](O)[C@@H]4O)[C@@H](NC(C)=O)C(O)O[C@@H]3CO)[C@@H]2O)(C(=O)O)C[C@@H]1O` (stereo partly shown) [SLe^x, NeuAcα2→3βGalβ1→4(Fucα1→3)GlcNAc] as the compound, how does the “binding to E-selectin” value [2] read?
Answer: Its value is “binds weakly”.

Question: And the “binding to P-selectin” value [3]?
Answer: The value was “binds weakly”.

Question: What about the accumulation of neutrophils [4, 5] of the same compound?
Answer: The accumulation of neutrophils was “reduced accumulation of neutrophils”.

Question: And the lung injury [4, 5]?
Answer: The lung injury was “reduced lung injury”.

Question: And the IC50 ([4]; protection against lung injury in rats, read-out: in vivo IC50 value)?
Answer: Its IC50 is about 1000 nM.

Question: And the “Ratio (50 percent binding value for the standard Compound Z divided by the 50 percent binding value for the assayed sample)” value [1]?
Answer: Its value is 0.76.
